# In US20220356170A1, “SREBP INHIBITOR COMPRISING A THIOPHENE CENTRAL RING” (Capulus Therapeutics, LLC, priority 2019, published 2022):
# Like-named read-outs stand apart in the source and are kept apart here.
# Test: In vivo pharmacokinetics, intravenous
# Conditions: male C57 BL/6 mice, dose 2.00 mg/kg (Compound 1), 2.43 mg/kg (Compound 2); for Vd: male, C57 BL/6, mouse, iv
# Protocol: The in vivo pharmacokinetic properties of Compound 1 by both intravenous and oral administration were evaluated in male C57 BL/6 mice. The in vivo pharmacokinetic properties of Compound 2 by both intravenous and oral administration were evaluated in male C57 BL/6 mice for comparison.
# Animals were housed in cages with clean bedding. Certified rodent diet was provided. Water was available ad libitum. Environmental controls for the animal room were set to maintain a temperature of 22 to 25° C., humidity of 40-70% RH, and a 12-hour light /12-hour dark cycle. Normal healthy animals certified by the attending veterinarian were selected and acclimatized for minimum three days prior to initiation of study.
# Procedure for Blood Withdrawal: Mice were anesthetized using gaseous anesthesia. Blood samples were collected through a capillary, guided in retro-orbital plexus. At each time point, blood samples from 3 mice of each respective group were collected. The blood samples were collected in pre-labeled tubes. 0.2 to 0.3 mL of blood were collected from each mouse. After collection of the blood samples at each time point, the samples were stored on ice prior to centrifugation. Blood samples were centrifuged within 15 minutes to separate plasma. Centrifugations was done at 1540 rcf (5000 rpm) at 4° C. for 10 minutes. The plasma was separated and transferred to pre-labeled micro-centrifuge tubes and promptly frozen at −80±10° C. until bioanalysis was performed. Samples were identified by test item, group, animal number, and collection time point.
# To evaluate pharmacokinetic properties of intravenous delivery, nine male C57 BL/6 mice were administered 2.00 mg Compound 1/kg animal weight through the tail vein. The concentration of Compound 1 in the plasma of the animals was evaluated at 0.083, 0.25, 0.5, 1, 2, 4, 8, and 24 hr by taking blood samples from the mice. Compound 2 was similarly administered for comparison.
structure (smiles),measurement,setting,value
"CC(C)(O)c1cc(-c2csc(-c3ccc(C(=O)N4CCC(O)CC4)cc3Cl)c2)ccn1 [Compound 1, (3-chloro-4-(4-(2-(2-hydroxypropan-2-yl)pyridin-4-yl)thiophen-2-yl)phenyl)(4-hydroxypiperidin-1-yl)methanone]",AUCExtra,,7.27%
same,Vd,"plasma, read-out: Vd",0.73 L/kg
same,Vd,"plasma, read-out: Vss",0.7 L/kg
same,AUC(0-inf),"mouse, plasma",25700 ng·h/mL
same,AUC(0-t),"mouse, plasma",23800 ng·h/mL
same,C0,"mouse, plasma",4630 ng/mL
same,clearance,"mouse, plasma",1.3 mL/min/kg
same,half-life,"mouse, plasma",6.5 h
same,MRT last,"mouse, plasma, read-out: MRT0-last",7.07 h
